Key:
Experiment in all cases: relative viability (nuclei count vs DMSO), 5 days (fraction); higher = more cells survive
[1] = system: CAL-12T
Method in brief: (§1)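 Relative viability equals treated-well nuclei counts divided by vehicle-well nuclei counts. Counts came from 4× images of lung cancer cell lines grown in 1536-well plates for 5 days after pin-tool dosing on the day after seeding. Dosing used one drug alone or a fixed anchor-drug dose plus five library-drug doses (not always all listed) in √10 steps, and values are medians of duplicate plates.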

[2] = system: ChaGo-K-1
Method in brief: as §1

[3] = system: HCC-366
Method in brief: as §1

[4] = system: HCC-78
Method in brief: as §1

[5] = system: LC-2-ad
Method in brief: as §1

[6] = system: LOU-NH91
Method in brief: as §1

[7] = system: LU99A
Method in brief: as §1

[8] = system: NCI-H1395
Method in brief: as §1

[9] = system: NCI-H1651
Method in brief: as §1

[10] = system: NCI-H1755
Method in brief: as §1

[11] = system: NCI-H1793
Method in brief: as §1

[12] = system: NCI-H1944
Method in brief: as §1

[13] = system: NCI-H2087
Method in brief: as §1

[14] = system: NCI-H2170
Method in brief: as §1

[15] = system: NCI-H2228
Method in brief: as §1

[16] = system: NCI-H2405
Method in brief: as §1

[17] = system: NCI-H3122
Method in brief: as §1

[18] = system: NCI-H460
Method in brief: as §1

[19] = system: PC-3 [JPC-3]
Method in brief: as §1

[20] = system: RERF-LC-KJ
Method in brief: as §1

[21] = system: UMC-11
Method in brief: as §1

CCN(CC)CCCCNc1ncc2cc(-c3cc(OC)cc(OC)c3)c(NC(=O)NC(C)(C)C)nc2n1 + Nc1nc2[nH]cc(CCc3ccc(C(=O)N[C@@H](CCC(=O)O)C(=O)O)cc3)c2c(=O)[nH]1 [Pemetrexed] (partner 0.2 µM)
relative viability ([1]; first compound 0.01 µM): 1.4 | relative viability ([1]; first compound 0.03162 µM): 1.2 | relative viability ([1]; first compound 0.1 µM): 1.53 | relative viability ([1]; first compound 0.3162 µM): 1.44 | relative viability ([1]; first compound 1 µM): 1.1 | relative viability ([2]; first compound 0.01 µM): 0.269 | relative viability ([2]; first compound 0.03162 µM): 0.407 | relative viability ([2]; first compound 0.1 µM): 0.267 | relative viability ([2]; first compound 0.3162 µM): 0.272 | relative viability ([2]; first compound 1 µM): 0.265 | relative viability ([3]; first compound 0.01 µM): 0.164 | relative viability ([3]; first compound 0.03162 µM): 0.172 | relative viability ([3]; first compound 0.1 µM): 0.19 | relative viability ([3]; first compound 0.3162 µM): 0.172 | relative viability ([3]; first compound 1 µM): 0.191 | relative viability ([4]; first compound 0.01 µM): 0.919 | relative viability ([4]; first compound 0.03162 µM): 0.933 | relative viability ([4]; first compound 0.1 µM): 0.949 | relative viability ([4]; first compound 0.3162 µM): 0.947 | relative viability ([4]; first compound 1 µM): 0.89 | relative viability ([5]; first compound 0.01 µM): 0.293 | relative viability ([5]; first compound 0.03162 µM): 0.267 | relative viability ([5]; first compound 0.1 µM): 0.272 | relative viability ([5]; first compound 0.3162 µM): 0.264 | relative viability ([5]; first compound 1 µM): 0.271 | relative viability ([6]; first compound 0.01 µM): 0.406 | relative viability ([6]; first compound 0.03162 µM): 0.376 | relative viability ([6]; first compound 0.1 µM): 0.641 | relative viability ([6]; first compound 0.3162 µM): 0.388 | relative viability ([6]; first compound 1 µM): 0.433 | relative viability ([7]; first compound 0.01 µM): 0.206 | relative viability ([7]; first compound 0.03162 µM): 0.177 | relative viability ([7]; first compound 0.1 µM): 0.214 | relative viability ([7]; first compound 0.3162 µM): 0.177 | relative viability ([7]; first compound 1 µM): 0.195 | relative viability ([8]; first compound 0.01 µM): 0.898 | relative viability ([8]; first compound 0.03162 µM): 0.787 | relative viability ([8]; first compound 0.1 µM): 0.955 | relative viability ([8]; first compound 0.3162 µM): 1.06 | relative viability ([8]; first compound 1 µM): 0.607 | relative viability ([9]; first compound 0.01 µM): 0.597 | relative viability ([9]; first compound 0.03162 µM): 0.635 | relative viability ([9]; first compound 0.1 µM): 0.643 | relative viability ([9]; first compound 0.3162 µM): 0.787 | relative viability ([9]; first compound 1 µM): 0.495 | relative viability ([10]; first compound 0.01 µM): 0.413 | relative viability ([10]; first compound 0.03162 µM): 0.572 | relative viability ([10]; first compound 0.1 µM): 0.356 | relative viability ([10]; first compound 0.3162 µM): 0.448 | relative viability ([10]; first compound 1 µM): 0.435 | relative viability ([11]; first compound 0.01 µM): 0.88 | relative viability ([11]; first compound 0.03162 µM): 0.815 | relative viability ([11]; first compound 0.1 µM): 0.988 | relative viability ([11]; first compound 0.3162 µM): 0.949 | relative viability ([11]; first compound 1 µM): 0.548 | relative viability ([12]; first compound 0.01 µM): 0.603 | relative viability ([12]; first compound 0.03162 µM): 0.804 | relative viability ([12]; first compound 0.1 µM): 0.705 | relative viability ([12]; first compound 0.3162 µM): 0.631 | relative viability ([12]; first compound 1 µM): 0.605 | relative viability ([13]; first compound 0.01 µM): 0.716 | relative viability ([13]; first compound 0.03162 µM): 0.637 | relative viability ([13]; first compound 0.1 µM): 0.746 | relative viability ([13]; first compound 0.3162 µM): 0.645 | relative viability ([13]; first compound 1 µM): 0.727 | relative viability ([14]; first compound 0.01 µM): 0.251 | relative viability ([14]; first compound 0.03162 µM): 0.293 | relative viability ([14]; first compound 0.1 µM): 0.262 | relative viability ([14]; first compound 0.3162 µM): 0.238 | relative viability ([14]; first compound 1 µM): 0.275 | relative viability ([15]; first compound 0.01 µM): 0.318 | relative viability ([15]; first compound 0.03162 µM): 0.344 | relative viability ([15]; first compound 0.1 µM): 0.418 | relative viability ([15]; first compound 0.3162 µM): 0.326 | relative viability ([15]; first compound 1 µM): 0.335 | relative viability ([16]; first compound 0.01 µM): 0.994 | relative viability ([16]; first compound 0.03162 µM): 1.06 | relative viability ([16]; first compound 0.1 µM): 1.14 | relative viability ([16]; first compound 0.3162 µM): 1.3 | relative viability ([16]; first compound 1 µM): 1.04 | relative viability ([17]; first compound 0.01 µM): 0.208 | relative viability ([17]; first compound 0.03162 µM): 0.186 | relative viability ([17]; first compound 0.1 µM): 0.208 | relative viability ([17]; first compound 0.3162 µM): 0.203 | relative viability ([17]; first compound 1 µM): 0.223 | relative viability ([18]; first compound 0.01 µM): 0.0558 | relative viability ([18]; first compound 0.03162 µM): 0.0576 | relative viability ([18]; first compound 0.1 µM): 0.0567 | relative viability ([18]; first compound 0.3162 µM): 0.056 | relative viability ([18]; first compound 1 µM): 0.0563 | relative viability ([19]; first compound 0.03162 µM): 1 | relative viability ([19]; first compound 0.1 µM): 1.15 | relative viability ([19]; first compound 0.3162 µM): 1.7 | relative viability ([19]; first compound 1 µM): 0.883 | relative viability ([20]; first compound 0.01 µM): 0.497 | relative viability ([20]; first compound 0.03162 µM): 0.487 | relative viability ([20]; first compound 0.1 µM): 0.499 | relative viability ([20]; first compound 0.3162 µM): 0.428 | relative viability ([20]; first compound 1 µM): 0.514 | relative viability ([21]; first compound 0.01 µM): 0.862 | relative viability ([21]; first compound 0.03162 µM): 0.767 | relative viability ([21]; first compound 0.1 µM): 0.969 | relative viability ([21]; first compound 0.3162 µM): 0.986 | relative viability ([21]; first compound 1 µM): 0.696

From the supplement of paper PMC10307832
